# From PubChem BioAssay (NCI)
#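 Method: 48-hour compound exposure of cells in 96-well plates, five concentrations, linear interpolation of endpoints. The concentration for 50% growth inhibition is given as GI50. TGI: concentration producing complete growth inhibition.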
# Assays:
# Test in all cases: growth of human tumour cells (NCI), 48 h
# HCT-116 colon = test system: HCT-116 colon
# NCI-H460 lung = test system: NCI-H460 lung
# SK-OV-3 ovarian = test system: SK-OV-3 ovarian
# MDA-MB-231 breast = test system: MDA-MB-231 breast
# NCI-H522 lung = test system: NCI-H522 lung
# IGROV1 ovarian = test system: IGROV1 ovarian
# NCI-H226 lung = test system: NCI-H226 lung
# 786-0 renal = test system: 786-0 renal
# MDA-MB-435 = test system: MDA-MB-435
# A549 NSCLC = test system: A549 NSCLC
# UO-31 renal = test system: UO-31 renal
# UACC-62 melanoma = test system: UACC-62 melanoma
# NCI/ADR-RES ovarian = test system: NCI/ADR-RES ovarian
# SNB-19 CNS = test system: SNB-19 CNS
# HOP-92 NSCLC = test system: HOP-92 NSCLC
# SK-MEL-5 melanoma = test system: SK-MEL-5 melanoma
# HCT-15 colon = test system: HCT-15 colon
# K-562 leukemia = test system: K-562 leukemia
# SNB-75 CNS = test system: SNB-75 CNS
# EKVX NSCLC = test system: EKVX NSCLC
# M14 melanoma = test system: M14 melanoma
# HT29 colon = test system: HT29 colon
# LOX IMVI melanoma = test system: LOX IMVI melanoma
# MOLT-4 leukemia = test system: MOLT-4 leukemia
# NCI-H23 lung = test system: NCI-H23 lung
# SF-268 CNS = test system: SF-268 CNS
# CAKI-1 renal = test system: CAKI-1 renal
# KM12 colon = test system: KM12 colon
# COLO 205 colon = test system: COLO 205 colon
# SF-539 CNS = test system: SF-539 CNS
# HOP-62 NSCLC = test system: HOP-62 NSCLC
# ACHN renal = test system: ACHN renal
# OVCAR-4 ovarian = test system: OVCAR-4 ovarian
# SW-620 colon = test system: SW-620 colon
# OVCAR-3 ovarian = test system: OVCAR-3 ovarian
# A498 renal = test system: A498 renal
# PC-3 prostate = test system: PC-3 prostate
# OVCAR-5 ovarian = test system: OVCAR-5 ovarian
# HS 578T breast = test system: HS 578T breast
# U251 CNS = test system: U251 CNS
# SR leukemia = test system: SR leukemia
# UACC-257 melanoma = test system: UACC-257 melanoma
# T-47D breast = test system: T-47D breast
# TK-10 renal = test system: TK-10 renal
# CCRF-CEM leukemia = test system: CCRF-CEM leukemia
# RPMI-8226 leukemia = test system: RPMI-8226 leukemia
# MCF7 breast = test system: MCF7 breast
# SK-MEL-28 melanoma = test system: SK-MEL-28 melanoma
# MALME-3M melanoma = test system: MALME-3M melanoma
# DU-145 prostate = test system: DU-145 prostate
# SK-MEL-2 melanoma = test system: SK-MEL-2 melanoma
# SN12C renal = test system: SN12C renal
# SF-295 CNS = test system: SF-295 CNS
# BT-549 breast = test system: BT-549 breast
# RXF 393 renal = test system: RXF 393 renal
# OVCAR-8 ovarian = test system: OVCAR-8 ovarian
smiles,measurement,setting,value
O=C1Nc2ccccc2/C1=C\c1c(Cl)nc2sccn12,GI50,HCT-116 colon,1.94 µM
same,TGI,HCT-116 colon,12.8 µM
same,GI50,NCI-H460 lung,2.76 µM
same,TGI,NCI-H460 lung,29.8 µM
same,GI50,SK-OV-3 ovarian,4.18 µM
same,TGI,SK-OV-3 ovarian,10.8 µM
same,GI50,MDA-MB-231 breast,6.87 µM
same,TGI,MDA-MB-231 breast,22.8 µM
same,GI50,NCI-H522 lung,3.9 µM
same,TGI,NCI-H522 lung,29.8 µM
same,GI50,IGROV1 ovarian,5.05 µM
same,TGI,IGROV1 ovarian,> 54.6 µM
same,GI50,NCI-H226 lung,6.11 µM
same,TGI,NCI-H226 lung,16 µM
same,GI50,786-0 renal,1.32 µM
same,TGI,786-0 renal,4.94 µM
same,GI50,MDA-MB-435,0.441 µM
same,TGI,MDA-MB-435,1.11 µM
same,GI50,A549 NSCLC,3.51 µM
same,TGI,A549 NSCLC,> 43.1 µM
same,GI50,UO-31 renal,2.69 µM
same,TGI,UO-31 renal,16.8 µM
same,GI50,UACC-62 melanoma,1.34 µM
same,TGI,UACC-62 melanoma,11.9 µM
same,GI50,NCI/ADR-RES ovarian,1.26 µM
same,TGI,NCI/ADR-RES ovarian,7.64 µM
same,GI50,SNB-19 CNS,6.78 µM
same,TGI,SNB-19 CNS,37.7 µM
same,GI50,HOP-92 NSCLC,4.31 µM
same,TGI,HOP-92 NSCLC,11.1 µM
same,GI50,SK-MEL-5 melanoma,1.77 µM
same,TGI,SK-MEL-5 melanoma,8.51 µM
same,GI50,HCT-15 colon,1.18 µM
same,TGI,HCT-15 colon,8.46 µM
same,TGI,K-562 leukemia,> 100 µM
same,GI50,SNB-75 CNS,3.23 µM
same,TGI,SNB-75 CNS,8.34 µM
same,GI50,EKVX NSCLC,1.88 µM
same,TGI,EKVX NSCLC,13.8 µM
same,GI50,M14 melanoma,2.02 µM
same,TGI,M14 melanoma,9.23 µM
same,GI50,HT29 colon,1.32 µM
same,TGI,HT29 colon,> 32.2 µM
same,GI50,LOX IMVI melanoma,3.45 µM
same,TGI,LOX IMVI melanoma,17.4 µM
same,GI50,MOLT-4 leukemia,3.52 µM
same,TGI,MOLT-4 leukemia,> 100 µM
same,GI50,NCI-H23 lung,4.7 µM
same,TGI,NCI-H23 lung,17.1 µM
same,GI50,SF-268 CNS,5.41 µM
same,TGI,SF-268 CNS,29.5 µM
same,GI50,CAKI-1 renal,1.22 µM
same,TGI,CAKI-1 renal,4.8 µM
same,GI50,KM12 colon,0.67 µM
same,TGI,KM12 colon,19.4 µM
same,GI50,COLO 205 colon,1.11 µM
same,TGI,COLO 205 colon,5.97 µM
same,GI50,SF-539 CNS,4.47 µM
same,TGI,SF-539 CNS,> 43.3 µM
same,GI50,HOP-62 NSCLC,1.82 µM
same,TGI,HOP-62 NSCLC,12.9 µM
same,GI50,ACHN renal,3.12 µM
same,TGI,ACHN renal,18.2 µM
same,GI50,OVCAR-4 ovarian,13.9 µM
same,TGI,OVCAR-4 ovarian,> 61.4 µM
same,GI50,SW-620 colon,3 µM
same,TGI,SW-620 colon,> 58.9 µM
same,GI50,OVCAR-3 ovarian,1.36 µM
same,TGI,OVCAR-3 ovarian,3.73 µM
same,GI50,A498 renal,9.38 µM
same,TGI,A498 renal,22.4 µM
same,GI50,PC-3 prostate,2.44 µM
same,TGI,PC-3 prostate,23.9 µM
same,GI50,OVCAR-5 ovarian,3.06 µM
same,TGI,OVCAR-5 ovarian,9.39 µM
same,GI50,HS 578T breast,4.14 µM
same,TGI,HS 578T breast,35.7 µM
same,GI50,U251 CNS,2.45 µM
same,TGI,U251 CNS,8.31 µM
same,GI50,SR leukemia,0.359 µM
same,TGI,SR leukemia,> 100 µM
same,GI50,UACC-257 melanoma,8.03 µM
same,TGI,UACC-257 melanoma,> 70.8 µM
same,GI50,T-47D breast,8.88 µM
same,TGI,T-47D breast,33.9 µM
same,GI50,TK-10 renal,3.24 µM
same,TGI,TK-10 renal,8.21 µM
same,GI50,CCRF-CEM leukemia,2.68 µM
same,TGI,CCRF-CEM leukemia,15.8 µM
same,GI50,RPMI-8226 leukemia,1.17 µM
same,TGI,RPMI-8226 leukemia,4.48 µM
same,GI50,MCF7 breast,0.66 µM
same,TGI,MCF7 breast,17.3 µM
same,GI50,SK-MEL-28 melanoma,4.91 µM
same,TGI,SK-MEL-28 melanoma,26.8 µM
same,GI50,MALME-3M melanoma,5.48 µM
same,TGI,MALME-3M melanoma,> 44.7 µM
same,GI50,DU-145 prostate,5.75 µM
same,TGI,DU-145 prostate,53.4 µM
same,GI50,SK-MEL-2 melanoma,4.16 µM
same,TGI,SK-MEL-2 melanoma,> 41.2 µM
same,GI50,SN12C renal,6.84 µM
same,TGI,SN12C renal,20.6 µM
same,GI50,SF-295 CNS,1.11 µM
same,TGI,SF-295 CNS,3.24 µM
same,GI50,BT-549 breast,1.15 µM
same,TGI,BT-549 breast,12.7 µM
same,GI50,RXF 393 renal,3.2 µM
same,TGI,RXF 393 renal,19 µM
same,GI50,OVCAR-8 ovarian,3.85 µM
same,TGI,OVCAR-8 ovarian,35.8 µM
